In patent US20250346613A1, “BORIC ACID PROTEASOME INHIBITOR AND USE THEREOF” (ARTIVILA BIOPHARMA, priority 2022, published 2025):

Test system: MM.1S cell strain
Experiment: Inhibitory activity of cell strain (CellTiter-Glo)
Type: cell-based
Details: Homo sapiens, MM1.S, 72 h incubation
Summary of the method: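 Cells seeded at 1×10^5 per well in RPMI1640 complete medium for 24 h, then treated 72 h at 37 °C, 5% CO2 with 3-fold dilutions, final 5×10^−7 M down to 2.29×10^−10 M. CellTiter-Glo luminescence; inhibition calculated against DMSO-only cells and medium-only blanks.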

| Compound | IC50 [nM] |
| --- | --- |
| Cc1ccc(C[C@H](NC(=O)C(C)C(=O)NCc2ccc(Cl)cc2Cl)B(O)O)cc1 (stereo partly drawn) [Example 59, ((1R)-1-(3-((2,4-dichlorobenzyl)amino)-2-methyl-3-oxopropionamido)-2-(p-tolyl)ethyl)boric acid] | ≤ 50 |
| COc1cccc(CCNC(=O)C(C)C(=O)N[C@@H](Cc2coc3ccccc23)B(O)O)c1 (stereo partly drawn) [Example 63, ((1R)-2-(benzofuran-3-yl)-1-(3-((3-methoxyphenylethyl)amino)-2-methyl-3-oxopropionamido)ethyl)boric acid] | ≤ 50 |
